Data on 20 molecules can be found in patent publication US20090270350A1, “Pyridinone Pyrazole Urea and Pyrimidinone Pyrazole Urea Derivatives” (PFIZER INC., priority 2006, published 2009).

One series deals with p38α (Homo sapiens, UniProt Q16539). Briefly: p38α/MK2 cascade assay. The series is classed as biochemical. The conditions noted are these: read-out: p38a/MK2 Cascade 40 min Pre-Incuabtion (% Inhibition): IC50. A digest of the protocol:
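In a cascade format, p38α was preincubated 40 min with inhibitor (1000–0.05 nM) before adding 1 nM nonactive MK2 (54-400), 5 μM MgATP and 0.5 μM FITC-Hsp27 peptide. Reaction ran 60 min in HEPES pH 7.5 with MgCl2, DTT, 2% DMSO, then EDTA-quenched. Peptide phosphorylation was measured by Caliper mobility shift to give IC50.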

Where [1] appears, read: Table 2, same p38α/MK2 cascade assay, 40 minutes preincubation.
[2] abbreviates: Table 1, inhibitors preincubated with p38α for 40 minutes, phosphorylation of Hsp27 peptide by MK-2, Caliper LabChip 3000.

Where two headings read alike, the source gives them in different places.

Chain of p38α (Q16539 whole entry): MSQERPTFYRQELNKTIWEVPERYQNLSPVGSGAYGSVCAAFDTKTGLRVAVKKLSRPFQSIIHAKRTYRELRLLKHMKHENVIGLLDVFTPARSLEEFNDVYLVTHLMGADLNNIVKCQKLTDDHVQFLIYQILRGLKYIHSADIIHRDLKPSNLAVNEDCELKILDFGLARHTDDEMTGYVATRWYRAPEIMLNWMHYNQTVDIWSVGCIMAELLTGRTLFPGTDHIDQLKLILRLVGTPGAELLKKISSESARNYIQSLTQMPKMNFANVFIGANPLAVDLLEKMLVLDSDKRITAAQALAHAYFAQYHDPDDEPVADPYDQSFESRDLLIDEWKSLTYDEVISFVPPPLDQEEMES

In turn, `CNC(=O)c1ccc(C)c(-n2c(C)cc(OCc3ccc(F)cc3CNC(=O)Nc3cc(C(C)(C)C)nn3-c3ccc(O)c(Cl)c3)c(Cl)c2=O)c1` [Example 169, 3-[4-(2-{3-[5-tert-butyl-2-(3-chloro-4-hydroxy-phenyl)-2H-pyrazol-3-yl]-ureidomethyl}-4-fluoro-benzyloxy)-3-chloro-6-methyl-2-oxo-2H-pyridin-1-yl]-4,N-dimethyl-benzamide] yielded a melting point of 177 to 180 °C.
`Cc1ccc(C(=O)NCCN(C)C)cc1-n1c(C)cc(OCc2ccc(F)cc2CNC(=O)Nc2cc(C(C)(C)C)nn2-c2ccc(Cl)c(O)c2)c(Cl)c1=O` [Example 166, 3-[4-(2-{3-[5-tert-Butyl-2-(4-chloro-3-hydroxy-phenyl)-2H-pyrazol-3-yl]-ureidomethyl}-4-fluoro-benzyloxy)-3-chloro-6-methyl-2-oxo-2H-pyridin-1-yl]-N-(2-dimethylamino-ethyl)-4-methyl-benzamide]: the melting point lay within 177 to 178 °C.
Still for that read-out and setting: with `COCCNC(=O)c1ccc(C)c(-n2c(C)cc(OCc3ccccc3CNC(=O)Nc3cc(C(C)(C)C)nn3-c3ccc(O)c(Cl)c3)c(Cl)c2=O)c1` [Example 155, 3-[4-(2-{3-[5-tert-butyl-2-(3-chloro-4-hydroxy-phenyl)-2H-pyrazol-3-yl]-ureidomethyl}-benzyloxy)-3-chloro-6-methyl-2-oxo-2H-pyridin-1-yl]-N-(2-methoxy-ethyl)-4-methyl-benzamide] the figure was 179 to 180 °C.
As to `COCCNC(=O)c1ccc(C)c(-n2c(C)cc(OCc3ccccc3CNC(=O)Nc3cc(C(C)(C)C)nn3-c3ccc(Cl)c(O)c3)c(Cl)c2=O)c1` [Example 163, 3-[4-(2-{3-[5-tert-butyl-2-(4-chloro-3-hydroxy-phenyl)-2H-pyrazol-3-yl]-ureidomethyl}-benzyloxy)-3-chloro-6-methyl-2-oxo-2H-pyridin-1-yl]-N-(2-methoxy-ethyl)-4-methyl-benzamide], the melting point lay in the range of 182 to 183 °C.
Same read-out and setting: with `Cc1ccc(C(=O)OCCO)cc1-n1c(C)cc(OCc2ccc(F)cc2CNC(=O)Nc2cc(C(C)(C)C)nn2-c2cccc(OCCO)c2)c(Cl)c1=O` [Example 180, 3-{4-[2-(3-{5-tert-butyl-2-[3-(2-hydroxy-ethoxy)-phenyl]-2H-pyrazol-3-yl}-ureidomethyl)-4-fluoro-benzyloxy]-3-chloro-6-methyl-2-oxo-2H-pyridin-1-yl}-4-methyl-benzoic acid 2-hydroxy-ethyl ester] the figure was 180 to 181 °C; with `Cc1ccc(C(=O)NCCO)cc1-n1c(C)cc(OCc2ccccc2CNC(=O)Nc2cc(C(C)(C)C)nn2-c2cccc(OCCO)c2)c(Cl)c1=O` [Example 132, 3-{4-[2-(3-{5-tert-Butyl-2-[3-(2-hydroxy-ethoxy)-phenyl]-2H-pyrazol-3-yl}-ureidomethyl)-benzyloxy]-3-chloro-6-methyl-2-oxo-2H-pyridin-1-yl}-N-(2-hydroxy-ethyl)-4-methyl-benzamide], 162 to 163 °C.
On the same count and under the same terms, the same measure for `Cc1ccc(C(=O)NCCN(C)C)cc1-n1c(C)cc(OCc2ccccc2CNC(=O)Nc2cc(C(C)(C)C)nn2-c2ccc(O)c(Cl)c2)c(Cl)c1=O` [Example 158, 3-[4-(2-{3-[5-tert-butyl-2-(3-chloro-4-hydroxy-phenyl)-2H-pyrazol-3-yl]-ureidomethyl}-benzyloxy)-3-chloro-6-methyl-2-oxo-2H-pyridin-1-yl]-N-(2-dimethylamino-ethyl)-4-methyl-benzamide]: 181 to 182 °C; for `Cc1ccc(C(=O)NCCO)cc1-n1c(C)cc(OCc2ccccc2CNC(=O)Nc2cc(C(C)(C)C)nn2-c2ccc(Cl)c(O)c2)c(Cl)c1=O` [Example 162, 3-[4-(2-{3-[5-tert-butyl-2-(4-chloro-3-hydroxy-phenyl)-2H-pyrazol-3-yl]-ureidomethyl}-benzyloxy)-3-chloro-6-methyl-2-oxo-2H-pyridin-1-yl]-N-(2-hydroxy-ethyl)-4-methyl-benzamide]: 196 to 197 °C.
Regarding `CNC(=O)c1ccc(C)c(-n2c(C)cc(OCc3ccccc3CNC(=O)Nc3cc(C(C)(C)C)nn3-c3ccc(O)c(Cl)c3)c(Cl)c2=O)c1` [Example 153, 3-[4-(2-{3-[5-tert-butyl-2-(3-chloro-4-hydroxy-phenyl)-2H-pyrazol-3-yl]-ureidomethyl}-benzyloxy)-3-chloro-6-methyl-2-oxo-2H-pyridin-1-yl]-4,N-dimethyl-benzamide], the melting point fell in the range of 201 to 203 °C.
Still for that read-out and setting: with `COC(=O)c1ccc(C)c(-n2c(C)cc(OCc3ccccc3CNC(=O)Nc3cc(C(C)(C)C)nn3-c3ccc(O)c(Cl)c3)c(Cl)c2=O)c1` [Example 137, 3-[4-(2-{3-[5-tert-butyl-2-(3-chloro-4-hydroxy-phenyl)-2H-pyrazol-3-yl]-ureidomethyl}-benzyloxy)-3-chloro-6-methyl-2-oxo-2H-pyridin-1-yl]-4-methyl-benzoic acid methyl ester] the figure was 185 to 186 °C.
Still for that read-out and setting: the same measure for `CNC(=O)c1ccc(C)c(-n2c(C)cc(OCc3ccccc3CNC(=O)Nc3cc(C(C)(C)C)nn3-c3cccc(OCCO)c3)c(Cl)c2=O)c1` [Example 133, 3-{4-[2-(3-{5-tert-butyl-2-[3-(2-hydroxy-ethoxy)-phenyl]-2H-pyrazol-3-yl}-ureidomethyl)-benzyloxy]-3-chloro-6-methyl-2-oxo-2H-pyridin-1-yl}-4,N-dimethyl-benzamide]: 168 to 170 °C.
As to `Cc1ccc(C(=O)NCC(N)=O)cc1-n1c(C)cc(OCc2ccccc2CNC(=O)Nc2cc(C(C)(C)C)nn2-c2ccc(O)c(Cl)c2)c(Cl)c1=O` [Example 233, N-(2-amino-2-oxoethyl)-3-{4-[(2-{[({[3-tert-butyl-1-(3-chloro-4-hydroxyphenyl)-1H-pyrazol-5-yl]amino}carbonyl)amino]-methyl}benzyl)oxy]-3-chloro-6-methyl-2-oxopyridin-1(2H)-yl}-4-methylbenzamide], the IC50 at p38α (setting [1]) was 1.5 nM.
The same measure, in the same setting: with `COc1ccc(Cn2c(C)cc(OCc3ccccc3CNC(=O)Nc3cc(C(C)(C)C)nn3-c3ccc(O)c(Cl)c3)c(C)c2=O)cc1Cl` [Example 266, 1-[3-tert-butyl-1-(3-chloro-4-hydroxyphenyl)-1H-pyrazol-5-yl]-3-[2-({[1-(3-chloro-4-methoxybenzyl)-3,6-dimethyl-2-oxo-1,2-dihydropyridin-4-yl]oxy}methyl)benzyl]urea] the figure was 19.2 nM.
As for `COC(=O)c1ccc(C)c(-n2c(C)cc(OCc3ccccc3CNC(=O)Nc3cc(C(C)(C)C)nn3-c3ccc(O)cc3)c(Cl)c2=O)c1` [Example 213, methyl 3-{4-[(2-{[({[3-tert-butyl-1-(4-hydroxyphenyl)-1H-pyrazol-5-yl]amino}carbonyl)amino]methyl}benzyl)oxy]-3-chloro-6-methyl-2-oxopyridin-1(2H)-yl}-4-methylbenzoate], on p38α (setting [1]), the IC50 turned out to be 4 nM.
The same measure, in the same setting: with `COC(=O)c1ccc(C)c(-n2c(C)cc(OCc3ccc(F)cc3CNC(=O)Nc3cc(C(C)(C)C)nn3-c3cccc(O)c3)c(Cl)c2=O)c1` [Example 203, methyl 3-{4-[(2-{[({[3-tert-butyl-1-(3-hydroxy-phenyl)-1H-pyrazol-5-yl]amino}-carbonyl)amino]-methyl}-4-fluorobenzyl)oxy]-3-chloro-6-methyl-2-oxopyridin-1(2H)-yl}-4-methylbenzoate] the figure was 2.8 nM.
On to `Cc1ccc(-n2nc(C(C)(C)C)cc2NC(=O)NCc2cc(F)ccc2COc2cc(C)n(-c3cc(C(=O)NCCO)ccc3C)c(=O)c2Br)cc1` [Example 193, 3-{3-bromo-4-[(2-{[({[3-tert-butyl-1-(4-methylphenyl)-1H-pyrazol-5-yl]amino}carbonyl)amino]methyl}-4-fluorobenzyl)oxy]-6-methyl-2-oxopyridin-1(2H)-yl}-N-(2-hydroxyethyl)-4-methylbenzamide], for which, on p38α (setting [2]), the IC50 was determined as 2.21 nM.
For `COc1cccc(Cn2c(C)cc(OCc3ccccc3CNC(=O)Nc3cc(C(C)(C)C)nn3-c3cccc(OCCO)c3)c(C)c2=O)c1` [Example 48, 1-{3-tert-butyl-1-[3-(2-hydroxyethoxy)phenyl]-1H-pyrazol-5-yl}-3-[2-({[1-(3-methoxybenzyl)-3,6-dimethyl-2-oxo-1,2-dihydropyridin-4-yl]oxy}methyl)benzyl]urea], the IC50 at p38α (setting [2]) turned out to be 6.4 nM.
Consider `CNC(=O)c1ccc(C)c(-n2c(C)cc(OCc3ccccc3CNC(=O)Nc3cc(C(C)(C)C)nn3-c3cccc(OCCO)c3)c(Cl)c2=O)c1` [Example 211, 3-[4-{[2-({[({3-tert-butyl-1-[3-(2-hydroxyethoxy)phenyl]-1H-pyrazol-5-yl}amino)carbonyl]amino}methyl)benzyl]oxy}-3-chloro-6-methyl-2-oxopyridin-1(2H)-yl]-N,4-dimethylbenzamide], for which the IC50 at p38α (setting [1]) amounted to 2.6 nM.
Take `COc1cccc(Cn2c(C)cc(OCc3ccc(F)cc3CNC(=O)Nc3cc(C(C)(C)C)nn3-c3ccc(Cl)c(O)c3)c(Cl)c2=O)c1` [Example 45, 1-[3-tert-butyl-(4-chloro-3-hydroxyphenyl)-1H-pyrazol-5-yl]-3-[2-({[3-chloro-1-(3-methoxybenzyl)-6-methyl-2-oxo-1,2-dihydropyridin-4-yl]oxy}methyl)-5-fluorobenzyl]urea]: the IC50 at p38α (setting [2]) worked out at 6.2 nM.
As to `Cc1cc(OCc2ccccc2CNC(=O)Nc2cc(C(C)(C)C)nn2-c2ccc(O)c(Cl)c2)c(Cl)c(=O)n1Cc1cccc(CNC(=O)CO)c1` [Example 261, N-[3-({4-[(2-{[({[3-tert-butyl-1-(3-chloro-4-hydroxyphenyl)-1H-pyrazol-5-yl]amino}carbonyl)amino]methyl}benzyl)oxy]-3-chloro-6-methyl-2-oxopyridin-1(2H)-yl}methyl)benzyl]-2-hydroxyacetamide], the IC50 on p38α (setting [1]) came to 8.9 nM.
